ChEMBL document CHEMBL1201862, “PubChem BioAssay data set” (2004)
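Following 48 hours of exposure in 96-well plates, responses at five concentrations were used to interpolate endpoints linearly. GI50 marks 50% less growth.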 Active and inactive are the calls of the source. Cut-off read from the data, not from the text of the source: active = GI50 up to about 1.1 µM and inactive = higher.

Columns and labels:
Assay in all cases: DTP human tumour cell line panel, 48 h
[1] = system: BT-549
[2] = system: SN12C
[3] = system: SR
[4] = system: CAKI-1
[5] = system: SK-OV-3
[6] = system: OVCAR-8
[7] = system: HOP-62
[8] = system: MCF7
[9] = system: EKVX
[10] = system: OVCAR-3
[11] = system: HT-29
[12] = system: Malme-3M
[13] = system: NCI/ADR-RES
[14] = system: RXF 393
[15] = system: NCI-H460
[16] = system: UACC-62
[17] = system: A498
[18] = system: SNB-19
[19] = system: HL-60

SMILES | GI50 [1] | GI50 [2] | GI50 [3] | GI50 [4] | GI50 [5] | GI50 [6] | GI50 [7] | GI50 [8] | GI50 [9] | GI50 [10] | GI50 [11] | GI50 [12] | GI50 [13] | GI50 [14] | GI50 [15] | GI50 [16] | GI50 [17] | GI50 [18] | GI50 [19]
O=C(O)C1OC1C(=O)O (stereo not drawn) | > 100 µM (inactive) | > 100 µM (inactive) | > 100 µM (inactive) | > 100 µM (inactive) | > 100 µM (inactive) | > 100 µM (inactive) | > 100 µM (inactive) | > 100 µM (inactive) | > 100 µM (inactive) | > 100 µM (inactive) | > 100 µM (inactive) | > 100 µM (inactive) | > 100 µM (inactive) | > 100 µM (inactive) | > 100 µM (inactive) | > 100 µM (inactive) | > 100 µM (inactive) | > 100 µM (inactive) | –
Cc1cccc(C)c1NC(=O)C(=O)CC(=O)c1sc(Nc2c(C)cccc2C)nc1C | > 100 µM (inactive) | > 100 µM (inactive) | – | > 100 µM (inactive) | > 100 µM (inactive) | > 100 µM (inactive) | > 100 µM (inactive) | > 100 µM (inactive) | > 100 µM (inactive) | > 100 µM (inactive) | > 100 µM (inactive) | – | > 100 µM (inactive) | 61.1 µM (inactive) | > 100 µM (inactive) | > 100 µM (inactive) | 86.7 µM (inactive) | > 100 µM (inactive) | 25.5 µM (inactive)
COc1cc(C2c3cc4c(cc3OC(NN=C(C)C)C2C)OCO4)cc(OC)c1O (stereo not drawn) | 12.2 µM (inactive) | 8.39 µM (inactive) | 1.44 µM (inactive) | 61.5 µM (inactive) | – | 27.5 µM (inactive) | – | 12.4 µM (inactive) | – | 19.5 µM (inactive) | 36 µM (inactive) | 8.75 µM (inactive) | 18 µM (inactive) | 24.7 µM (inactive) | – | 19.2 µM (inactive) | – | 85.5 µM (inactive) | –
O=C1c2ccccc2NC2C(O)c3ccccc3N12 (stereo not drawn) | 58.2 µM (inactive) | 94.4 µM (inactive) | 38.4 µM (inactive) | 34.8 µM (inactive) | > 100 µM (inactive) | 49.1 µM (inactive) | 65 µM (inactive) | 40.2 µM (inactive) | 35.4 µM (inactive) | 37 µM (inactive) | 60 µM (inactive) | 3.98 µM (inactive) | 40.4 µM (inactive) | > 100 µM (inactive) | 13.2 µM (inactive) | 23.6 µM (inactive) | 20.6 µM (inactive) | > 100 µM (inactive) | –
COc1cccc(/N=N/C(=N/NC(=O)c2ccc(C)cc2)c2ccc(N(CCC#N)CCC#N)cc2OC)c1 | > 100 µM (inactive) | > 100 µM (inactive) | > 100 µM (inactive) | > 100 µM (inactive) | > 100 µM (inactive) | > 100 µM (inactive) | > 100 µM (inactive) | > 100 µM (inactive) | 22.9 µM (inactive) | > 100 µM (inactive) | 21.2 µM (inactive) | > 100 µM (inactive) | > 100 µM (inactive) | > 100 µM (inactive) | 3.76 µM (inactive) | > 100 µM (inactive) | > 100 µM (inactive) | > 100 µM (inactive) | –
O=C1c2ccccc2C(=O)c2c(NCCNC(=O)C3CCCN3)ccc(NCCNC(=O)C3CCCN3)c21 (stereo not drawn) | 29.9 µM (inactive) | 46 µM (inactive) | 22 µM (inactive) | > 100 µM (inactive) | > 100 µM (inactive) | 33.9 µM (inactive) | 45 µM (inactive) | 30.8 µM (inactive) | > 100 µM (inactive) | 69.8 µM (inactive) | 47.4 µM (inactive) | 95.9 µM (inactive) | > 100 µM (inactive) | – | – | 38.7 µM (inactive) | – | 44.1 µM (inactive) | 31 µM (inactive)
O=C(/C=C/c1ccc(Cl)cc1)c1ccc(Cl)s1 | 27 µM (inactive) | > 100 µM (inactive) | 34.3 µM (inactive) | – | 98.6 µM (inactive) | 55.8 µM (inactive) | > 100 µM (inactive) | 4.8 µM (inactive) | 68.9 µM (inactive) | 58.7 µM (inactive) | 42.3 µM (inactive) | > 100 µM (inactive) | 72.1 µM (inactive) | 23.2 µM (inactive) | 67.8 µM (inactive) | 23.4 µM (inactive) | 19.1 µM (inactive) | 50.5 µM (inactive) | 24.3 µM (inactive)
COc1cc(C=C2N=C(c3ccccc3)N(n3c(-c4ccccc4)nc4ccccc4c3=O)C2=O)cc(OC)c1OC | 16.4 µM (inactive) | 16.9 µM (inactive) | 40.7 µM (inactive) | 48.3 µM (inactive) | 35.4 µM (inactive) | 21.1 µM (inactive) | 13.6 µM (inactive) | 22 µM (inactive) | 23.8 µM (inactive) | 21.3 µM (inactive) | 31.8 µM (inactive) | 19.3 µM (inactive) | 38.9 µM (inactive) | 12.1 µM (inactive) | 20.3 µM (inactive) | 22.3 µM (inactive) | – | 24.7 µM (inactive) | 49.1 µM (inactive)
C/C=C/C1OC(O)(C(C)C(O)[C@H](C)C2OC(=O)/C(OC)=C/C(C)=C/[C@@H](C)[C@@H](O)[C@@H](C)C(O)C(C)C/C(C)=C/C=C/C2OC)C[C@@H](OC2CC(O)C(OC(N)=O)C(C)O2)C1C (stereo partly drawn) | < 0.01 µM (active) | < 0.01 µM (active) | – | < 0.01 µM (active) | 2.47 µM (inactive) | < 0.01 µM (active) | < 0.01 µM (active) | < 0.01 µM (active) | < 0.01 µM (active) | < 0.0182 µM (active) | < 0.01 µM (active) | < 0.01 µM (active) | < 0.0127 µM (active) | – | < 0.01 µM (active) | < 0.01 µM (active) | 0.131 µM (active) | < 0.01 µM (active) | < 0.01 µM (active)
CCCCCCCCP(=O)(O)OP(=O)(O)OCC1OC(n2ccc(N)nc2=O)C(O)C1O (stereo not drawn) | > 100 µM (inactive) | > 100 µM (inactive) | – | > 100 µM (inactive) | > 100 µM (inactive) | > 100 µM (inactive) | > 100 µM (inactive) | > 100 µM (inactive) | > 100 µM (inactive) | > 100 µM (inactive) | > 100 µM (inactive) | > 100 µM (inactive) | > 100 µM (inactive) | > 100 µM (inactive) | > 100 µM (inactive) | > 100 µM (inactive) | > 100 µM (inactive) | > 100 µM (inactive) | > 100 µM (inactive)
NC(C(F)(F)F)(C(F)(F)F)P(=O)(Cc1ccccc1)Cc1ccccc1 | > 100 µM (inactive) | > 100 µM (inactive) | > 100 µM (inactive) | > 100 µM (inactive) | > 100 µM (inactive) | > 100 µM (inactive) | 83.2 µM (inactive) | > 100 µM (inactive) | > 100 µM (inactive) | > 100 µM (inactive) | > 100 µM (inactive) | > 100 µM (inactive) | > 100 µM (inactive) | 28.9 µM (inactive) | > 100 µM (inactive) | > 100 µM (inactive) | – | > 100 µM (inactive) | > 100 µM (inactive)
COCCCN(Cc1cc(OC)c(OC)c(OC)c1)C(=S)Nc1cccc(Cl)c1 | 22.6 µM (inactive) | 24.4 µM (inactive) | – | 21.5 µM (inactive) | 41 µM (inactive) | 25 µM (inactive) | 42.6 µM (inactive) | 21.7 µM (inactive) | 12.3 µM (inactive) | 41.6 µM (inactive) | 18.7 µM (inactive) | – | 21.1 µM (inactive) | 26.8 µM (inactive) | 30.1 µM (inactive) | 15.4 µM (inactive) | 28.3 µM (inactive) | 43.7 µM (inactive) | 17.7 µM (inactive)
COc1ccc2c(c1)CCC1=CC3(CCC12C)SCCS3 (stereo not drawn) | > 10 µM (inactive) | 9.25 µM (inactive) | 4.41 µM (inactive) | 7.52 µM (inactive) | 3.27 µM (inactive) | > 10 µM (inactive) | > 10 µM (inactive) | 3.48 µM (inactive) | – | 3.3 µM (inactive) | 3.68 µM (inactive) | 5.35 µM (inactive) | 3.56 µM (inactive) | – | – | 4.14 µM (inactive) | – | > 10 µM (inactive) | 2.81 µM (inactive)
Nc1nc(Cl)cc(Nc2cc(Cl)cc(Cl)c2)n1 | 22.1 µM (inactive) | 22 µM (inactive) | – | 23.4 µM (inactive) | 19.5 µM (inactive) | 14.2 µM (inactive) | 29.2 µM (inactive) | 18.1 µM (inactive) | 21.3 µM (inactive) | 22.8 µM (inactive) | 17 µM (inactive) | 22.3 µM (inactive) | 21 µM (inactive) | 21.1 µM (inactive) | 18.2 µM (inactive) | 18.4 µM (inactive) | 25.9 µM (inactive) | 23.4 µM (inactive) | –
CN(C)C(=S)N/N=C\C(=N/NC(=S)N(C)C)c1ccccc1 | > 22.2 µM (inactive) | 6.24 µM (inactive) | – | 7.24 µM (inactive) | 12.3 µM (inactive) | 4.82 µM (inactive) | 6.05 µM (inactive) | 4.03 µM (inactive) | 7.36 µM (inactive) | 2.7 µM (inactive) | 5.16 µM (inactive) | – | 2.98 µM (inactive) | 7.36 µM (inactive) | 1.36 µM (inactive) | 8.41 µM (inactive) | 7.21 µM (inactive) | 17 µM (inactive) | –
COc1ccccc1-c1nc[nH]c1-c1ccccc1OC | 33.4 µM (inactive) | 38 µM (inactive) | – | 31 µM (inactive) | 36.1 µM (inactive) | – | 40.8 µM (inactive) | 24.8 µM (inactive) | 25.6 µM (inactive) | 24.2 µM (inactive) | – | 11.2 µM (inactive) | 22 µM (inactive) | 24.5 µM (inactive) | 24.3 µM (inactive) | – | 27.7 µM (inactive) | 35.2 µM (inactive) | –
